Data as given in US11897902B1, “Nano-sized mixed ligand [4-bromo-2-(quinolin-2-yliminomethyl)-phenol imine- phenanthroline] Ru(III) complex for medicinal applications” (KING FAISAL UNIVERSITY, priority 2023, dated 2024).
In brackets after ≈: the same amount, converted by molar mass. Blank lines part the entries; values can stand above or below the molecule they belong to.

How the values were obtained:
Assay type in all cases: cell-based
Aspergillus flavus = assay: Antifungal activity, well diffusion method (inhibition zone, MIC)
Experimental: To evaluate antimicrobial activity, the fungal strain (Aspergillus flavus), was used. These strains were cultured in nutrient agar and Muller-Hinton medium. Fluconazole compound was used as a standard drug for comparison.
Antifungal activities of the prepared nano-complex were studied against three fungal cultures using well diffusion method. The tested fungi were inoculated in Sabouraud dextrose broth medium (Hi-Media Mumbai) and incubated at 35° C. for 72 h and subsequently a suspension of about 1.60×10^4-6.00×10^4 c.f.u/ml was introduced agar plates and a sterile glass spreader was used for even distribution of the inoculum. The discs measuring 6 mm in diameter were prepared from Whatman No. 1 filter paper and sterilized by dry heat at 140° C. for 1 h. The sterile discs previously soaked in known concentration of the tested compounds were placed in Sabouraud dextrose Agar (SDA) plates. The plates were inverted and incubated at 35° C. for 7 days. The susceptibility was assessed on the basis of diameter of inhibition against albicans and non-albicans strain of fungi.

Escherichia coli(−ve) = assay: Antimicrobial activity, agar well diffusion (inhibition zone, MIC); details: E. coli
Experimental: To evaluate antimicrobial activity, the bacterial strain Escherichia coli(−ve), was used. These strains were cultured in a nutrient agar and Muller-Hinton medium. Ofloxacin compound was used as a standard drug for comparison.
The susceptibilities of such growth rate of microorganisms were measured in vitro by agar well diffusion method. The tested nano complex was dissolved in dimethyl sulfoxide at different concentrations (10 and 20 mg/ml). 1 cm^3 of a 24 h broth culture containing 10^6 CFU/cm^3 was placed in sterile Petri-dishes. Molten nutrient agar (15 cm 3) maintained at 45° C. was then poured into the Petri-dishes and allowed to solidify. Then holes of 6 mm diameter were formed in the agar using a sterile cork borer and these holes were completely filled with the test solutions. The plates were incubated for 24 h at 37° C. After the incubation period, the zone of inhibition of each well was determined by measuring the zones of growth inhibition (mm) against the test microorganisms with zone reader (Hi Antibiotic zone scale). […] The measurements were made in triplicate for each compound and their average values are reported.

Breast cancer cells line = assay: Cytotoxic activity, Sulfo-Rhodamine-B-stain (SRB); details: Homo sapiens, breast cancer cell line, 48 hours
Experimental: The anticancer activity was made at the National Cancer Institute, Cancer Biology Department, Pharmacology Department, Cairo University. The absorbance or optical density (O.D.) of each well was measured spectrophotometrically at 564 (nm) with an “ELIZA” micro plate reader (Meter tech. Σ960, “USA”). Evaluation of the cytotoxic activity of the prepared nano-complex was carried out against Breast cancer cells line. The evaluation process was carried out in vitro using the Sulfo-Rhodamine-B-stain (SRB). Cells were placed in 96-multiwell plate (10^4 cells/well) for 24 hours before processing with the complexes to allow attachment of cell to the wall of the plate. Various concentrations of the compounds under test in DMSO (0, 1, 2.5, 5 and 10 μM) were added to the cell monolayer. Monolayer cells were incubated with the complexes for 48 hours at 37° C. and in atmosphere of 5% CO2. After 48 hours, cells were fixed, rinsed, and stained with Sulfo-Rhodamine-B-stain. Excess stain was washed with acetic acid and attached stain was treated with Tris EDTA buffer. Color intensity was measured in an ELISA reader. IC50 was evaluated and potency was calculated with regard to percentage of change of (vistabline standard). The relation between surviving fraction and compound concentration is plotted to get the survival curve of each tumor cell line after the specified compound. […]

MIC (Aspergillus flavus): 2 µg/mL (≈ 6.53 µM)
Compound: OC(Cn1cncn1)(Cn1cncn1)c1ccc(F)cc1F [Fluconazol, Fluconazole]
inhibition zone (Aspergillus flavus; well diffusion, 35° C. for 7 days): 24 mm

MIC (Escherichia coli(−ve); Escherichia coli): 2.5 µg/mL (≈ 6.92 µM)
Compound: CC1COc2c(N3CCN(C)CC3)c(F)cc3c(=O)c(C(=O)O)cn1c23 (centres unmarked) [Ofloxacin]
inhibition zone (Escherichia coli(−ve); agar well diffusion, 24 h at 37° C.): 35 mm

Compound: CC[C@]1(O)C[C@@H]2CN(CCc3c([nH]c4ccccc34)[C@@](C(=O)OC)(c3cc4c(cc3OC)N(C)[C@H]3[C@@](O)(C(=O)OC)[C@H](OC(C)=O)[C@]5(CC)C=CCN6CC[C@]43[C@@H]65)C2)C1 [vinblastine]
IC50 (Breast cancer cells line): 4.5 µg/mL (≈ 5.55 µM)
